Melting point data for 17 molecules are collected here from article PMC6271825, “Synthesis and Cytotoxic Activity Evaluation of Novel Arylpiperazine Derivatives on Human Prostate Cancer Cell Lines” (Molecules, 2014).

Counter-ions that a name gives are not always drawn.

As usually defined, the melting point is the temperature of the solid-liquid transition. In turn, `Clc1ccccc1N1CCN(CCc2ccc(COc3ccc4c(c3)OCO4)cc2)CC1` (as salt: HCl) [Compound 19, 1-(2-(4-((Benzo[d][1,3]dioxol-5-yloxy)methyl)phenyl)ethyl)-4-(2-chlorophenyl)piperazine] came in with a melting point of 176 to 177 °C.

Molecule `COc1ccccc1N1CCN(CCc2ccc(COc3ccc4c(c3)OCO4)cc2)CC1` (as salt: HCl) [Compound 12, 1-(2-(4-((Benzo[d][1,3]dioxol-5-yloxy)methyl)phenyl)ethyl)-4-(2-methoxyphenyl)piperazine] came in with a melting point of 173 to 174 °C.

Consider `c1ccc(CN2CCN(CCc3ccc(COc4ccc5c(c4)OCO5)cc3)CC2)cc1` (as salt: HCl) [Compound 6, 1-(2-(4-((Benzo[d][1,3]dioxol-5-yloxy)methyl)phenyl)ethyl)-4-benzylpiperazine], for which the melting point lay within 177 to 178 °C.

On to `COc1cccc(N2CCN(CCc3ccc(COc4ccc5c(c4)OCO5)cc3)CC2)c1` (as salt: HCl) [Compound 14, 1-(2-(4-((Benzo[d][1,3]dioxol-5-yloxy)methyl)phenyl)ethyl)-4-(3-methoxyphenyl)piperazine], for which the melting point was in the range of 171 to 172 °C.

The molecule `CC(=O)c1ccc(N2CCN(CCc3ccc(COc4ccc5c(c4)OCO5)cc3)CC2)cc1` (as salt: HCl) [Compound 27, 1-(4-(4-(2-(4-((Benzo[d][1,3]dioxol-5-yloxy)methyl)phenyl)ethyl)piperazin-1-yl)phenyl)ethanone] came in with a melting point of 183 to 184 °C.

In turn, `COc1ccc(Cl)cc1N1CCN(CCc2ccc(COc3ccc4c(c3)OCO4)cc2)CC1` (as salt: HCl) [Compound 23, 1-(2-(4-((Benzo[d][1,3]dioxol-5-yloxy)methyl)phenyl)ethyl)-4-(5-chloro-2-methoxyphenyl)piperazine] returned a melting point of 177 to 178 °C.

As to `FC(F)(F)c1ccccc1N1CCN(CCc2ccc(COc3ccc4c(c3)OCO4)cc2)CC1` (as salt: HCl) [Compound 25, 1-(2-(4-((Benzo[d][1,3]dioxol-5-yloxy)methyl)phenyl)ethyl)-4-(2-(trifluoromethyl)phenyl)piperazine], the melting point lay in the range of 171 to 172 °C.

On to `Brc1ccc(N2CCN(CCc3ccc(COc4ccc5c(c4)OCO5)cc3)CC2)cc1` (as salt: HCl) [Compound 24, 1-(2-(4-((Benzo[d][1,3]dioxol-5-yloxy)methyl)phenyl)ethyl)-4-(4-bromophenyl)piperazine], for which the melting point lay within 173 to 174 °C.

Regarding `Clc1cccc(N2CCN(CCc3ccc(COc4ccc5c(c4)OCO5)cc3)CC2)c1Cl` (as salt: HCl) [Compound 22, 1-(2-(4-((Benzo[d][1,3]dioxol-5-yloxy)methyl)phenyl)ethyl)-4-(2,3-dichlorophenyl)piperazine], the melting point lay in the range of 177 to 178 °C.

Molecule `c1cnc(N2CCN(CCc3ccc(COc4ccc5c(c4)OCO5)cc3)CC2)nc1` (as salt: HCl) [Compound 8, 2-(4-(2-(4-((Benzo[d][1,3]dioxol-5-yloxy)methyl)phenyl)ethyl)piperazin-1-yl)pyrimidine] registered a melting point of 181 to 182 °C.

Take `Fc1ccc(N2CCN(CCc3ccc(COc4ccc5c(c4)OCO5)cc3)CC2)c(F)c1` (as salt: HCl) [Compound 17, 1-(2-(4-((Benzo[d][1,3]dioxol-5-yloxy)methyl)phenyl)ethyl)-4-(2,4-difluorophenyl)piperazine]: the melting point was in the range of 169 to 170 °C.

In the case of `Fc1ccc(N2CCN(CCc3ccc(COc4ccc5c(c4)OCO5)cc3)CC2)cc1` (as salt: HCl) [Compound 16, 1-(2-(4-((Benzo[d][1,3]dioxol-5-yloxy)methyl)phenyl)ethyl)-4-(4-fluorophenyl)piperazine], the melting point was in the range of 196 to 197 °C.

The molecule `Cc1cccc(N2CCN(CCc3ccc(COc4ccc5c(c4)OCO5)cc3)CC2)c1` (as salt: HCl) [Compound 11, 1-(2-(4-((Benzo[d][1,3]dioxol-5-yloxy)methyl)phenyl)ethyl)-4-m-tolylpiperazine] returned a melting point of 171 to 172 °C.

As to `N#Cc1ccc(N2CCN(CCc3ccc(COc4ccc5c(c4)OCO5)cc3)CC2)c(F)c1` (as salt: HCl) [Compound 18, 4-(4-(2-(4-((Benzo[d][1,3]dioxol-5-yloxy)methyl)phenyl)ethyl)piperazin-1-yl)-3-fluorobenzonitrile], the melting point was in the range of 182 to 183 °C.

The molecule `Fc1ccccc1N1CCN(CCc2ccc(COc3ccc4c(c3)OCO4)cc2)CC1` (as salt: HCl) [Compound 15, 1-(2-(4-((Benzo[d][1,3]dioxol-5-yloxy)methyl)phenyl)ethyl)-4-(2-fluorophenyl)piperazine] came in with a melting point of 187 to 188 °C.

On to `Clc1cccc(N2CCN(CCc3ccc(COc4ccc5c(c4)OCO5)cc3)CC2)c1` (as salt: HCl) [Compound 21, 1-(2-(4-((Benzo[d][1,3]dioxol-5-yloxy)methyl)phenyl)ethyl)-4-(3-chlorophenyl)piperazine], for which the melting point lay in the range of 177 to 178 °C.

In turn, `Clc1ccc(N2CCN(CCc3ccc(COc4ccc5c(c4)OCO5)cc3)CC2)cc1` (as salt: HCl) [Compound 20, 1-(2-(4-((Benzo[d][1,3]dioxol-5-yloxy)methyl)phenyl)ethyl)-4-(4-chlorophenyl)piperazine] displayed a melting point of 164 to 165 °C.
